Experimental data: US12617773B2, “Azetidin-3-ylmethanol derivatives as CCR6 receptor modulators” (Idorsia Pharmaceuticals Ltd, priority 2020, dated 2026)

Molecular target: T1, human CCR6 (Homo sapiens, UniProt P51684)
T1 construct: expressed in transfected cells; host or cells: HEK-293
T1 sequence (P51684 1-374): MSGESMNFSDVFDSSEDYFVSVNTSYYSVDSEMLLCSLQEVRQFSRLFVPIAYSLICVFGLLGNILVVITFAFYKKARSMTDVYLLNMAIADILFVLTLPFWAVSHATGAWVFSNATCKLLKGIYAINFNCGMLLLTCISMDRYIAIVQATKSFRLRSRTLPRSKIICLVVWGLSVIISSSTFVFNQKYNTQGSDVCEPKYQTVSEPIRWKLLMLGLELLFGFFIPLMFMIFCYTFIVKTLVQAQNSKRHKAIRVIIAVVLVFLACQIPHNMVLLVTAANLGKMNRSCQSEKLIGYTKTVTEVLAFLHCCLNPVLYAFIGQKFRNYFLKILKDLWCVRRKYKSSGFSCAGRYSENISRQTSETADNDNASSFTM
Test: FLIPR assay (inhibition of CCL20-induced calcium signal)
Format: cell-based
Conditions: HEK-293 cells expressing human CCR6; mean values where determined several times; read-out: FLIPR IC50
Procedure, shortened: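 IC50 values come from baseline-corrected peak calcium fluorescence after agonist. The agonist was CCL20 at 10 nM final, added to engineered human CCR6 HEK-293 cells following a 30-min, room-temperature, dark preincubation with serially diluted compound. Readings were taken in a fluorometric imaging plate reader.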

With `CC(C)c1ccc([C@](O)(c2cncc(N3CC[C@H](F)C3)c2)C2(C)CN(C)C2)cc1` [Example 283] the IC50 was 61.6 nM.

Work on `CC(C)c1ccc([C@](O)(c2cncc(-n3cc(C4CCOCC4)nn3)c2)C2(C)CN(C)C2)cc1` [Example 284, (R)-(1,3-Dimethyl-azetidin-3-yl)-(4-isopropyl-phenyl)-{5-[4-(tetrahydro-pyran-4-yl)-[1,2,3]triazol-1-yl}-pyridin-3-yl]-methanol] yielded an IC50 of 222 nM.

With `Cc1cncc(C(O)(c2ccc(C(C)C)cc2)C2(C)CN(C)C2)c1` (centres unmarked) [Example 285] the IC50 was 78 nM.

In the case of `C=C(C)c1cncc(C(O)(c2ccc(C(C)C)cc2)C2(C)CN(C)C2)c1` (centres unmarked) [Example 286], the IC50 is reported as 36.3 nM.

In the case of `CC(C)c1ccc(C(O)(c2cncc(C3CC3)c2)C2(C)CN(C)C2)cc1` (centres unmarked) [Example 287], the IC50 is reported as 42.8 nM.

With `CC(C)c1ccc(C(O)(c2cncc(C3=CCCC3)c2)C2(C)CN(C)C2)cc1` (centres unmarked) [Example 288] the IC50 was 33.9 nM.

`CC(C)c1ccc(C(O)(c2cncc(C3=CC(O)CC3)c2)C2(C)CN(C)C2)cc1` (centres unmarked) [Example 289, 3-{5-[(1,3-Dimethyl-azetidin-3-yl)-hydroxy-(4-isopropyl-phenyl)-methyl]-pyridin-3-yl}-cyclopent-2-enol] showed an IC50 of 82.4 nM.

In the case of `CC(C)c1ccc(C(O)(c2cncc(C(C)C)c2)C2(C)CN(C)C2)cc1` (centres unmarked) [Example 290], the IC50 is reported as 100 nM.

With `CC(C)c1ccc(C(O)(c2cncc(C3CCCC3)c2)C2(C)CN(C)C2)cc1` (centres unmarked) [Example 291] the IC50 was 24.8 nM.

`CC(C)c1ccc(C(O)(c2cncc(C3CCC(O)C3)c2)C2(C)CN(C)C2)cc1` (centres unmarked) [Example 292] showed an IC50 of 748 nM.

`CC(C)c1ccc([C@](O)(c2cccnc2)C2(C)CN(C)C2)cc1` [Example 293] was tested, and the IC50 was 246 nM.

In the case of `CC(C)c1ccc([C@](O)(c2cncc(C3=CC(=O)CC3)c2)C2(C)CN(C)C2)cc1` [Example 294, 3-{5-[(R)-(1,3-Dimethyl-azetidin-3-yl)-hydroxy-(4-isopropyl-phenyl)-methyl]-pyridin-3-yl}-cyclopent-2-enone], the IC50 is reported as 49.4 nM.

`CC(C)c1ccc([C@](O)(c2cncc(C3=CC(C)(O)CC3)c2)C2(C)CN(C)C2)cc1` (stereo partly drawn) [Example 295, 3-{5-[(R)-(1,3-Dimethyl-azetidin-3-yl)-hydroxy-(4-isopropyl-phenyl)-methyl]-pyridin-3-yl}-1-methyl-cyclopent-2-enol] gave an IC50 of 61.1 nM.

`CC(C)c1ccc([C@](O)(c2cncc([C@H]3CCC(C)(O)C3)c2)C2(C)CN(C)C2)cc1` (stereo partly drawn) [Example 296, (3S)-3-(5-((R)-(1,3-dimethylazetidin-3-yl)(hydroxy)(4-isopropylphenyl)methyl)pyridin-3-yl)-1-methylcyclopentan-1-ol] gave an IC50 of 118 nM.

Work on `CCC1(O)CCC(c2cncc([C@@](O)(c3ccc(C(C)C)cc3)C3(C)CN(C)C3)c2)C1` (stereo partly drawn) [Example 298, 3-{5-[(R)-(1,3-Dimethyl-azetidin-3-yl)-hydroxy-(4-isopropyl-phenyl)-methyl]-pyridin-3-yl}-1-ethyl-cyclopentanol] yielded an IC50 of 65.2 nM.

`CC(C)c1ccc([C@](O)(c2cncc(C3CCC(O)(C(C)C)C3)c2)C2(C)CN(C)C2)cc1` (stereo partly drawn) [Example 299, 3-{5-[(R)-(1,3-Dimethyl-azetidin-3-yl)-hydroxy-(4-isopropyl-phenyl)-methyl]-pyridin-3-yl}-1-isopropyl-cyclopentanol] showed an IC50 of 80.6 nM.

`Cc1coc(-c2cncc([C@@](O)(c3ccc(C(C)C)cc3)C3(C)CN(C)C3)c2)n1` [Example 300, (R)-(1,3-Dimethyl-azetidin-3-yl)-(4-isopropyl-phenyl)-[5-(4-methyl-oxazol-2-yl)-pyridin-3-yl]-methanol] gave an IC50 of 40.8 nM.

`CCc1cncc([C@@](O)(c2ccc(C(C)C)cc2)C2(C)CN(C)C2)c1` [Example 301, (R)-(1,3-Dimethyl-azetidin-3-yl)-(5-ethyl-pyridin-3-yl)-(4-isopropyl-phenyl)-methanol] showed an IC50 of 60 nM.

`Cc1cncc([C@@](O)(c2ccc(C(C)C)cc2)C2(C)CN(C)C2)c1` [Example 302, (R)-(1,3-Dimethyl-azetidin-3-yl)-(4-isopropyl-phenyl)-(5-methyl-pyridin-3-yl)-methanol] showed an IC50 of 44.5 nM.

`CC(C)c1ccc([C@](O)(c2cncc(C3=COCC3)c2)C2(C)CN(C)C2)cc1` [Example 303, (R)-[5-(4,5-Dihydro-furan-3-yl)-pyridin-3-yl]-(1,3-dimethyl-azetidin-3-yl)-(4-isopropyl-phenyl)-methanol] showed an IC50 of 30.7 nM.

With `CC(C)c1ccc([C@](O)(c2cncc(C3CCOC3)c2)C2(C)CN(C)C2)cc1` (stereo partly drawn) [Example 304, (R)-(1,3-Dimethyl-azetidin-3-yl)-(4-isopropyl-phenyl)-[5-(tetrahydro-furan-3-yl)-pyridin-3-yl]-methanol] the IC50 was 385 nM.

Compound `C=C(CCO)c1cncc([C@@](O)(c2ccc(C(C)C)cc2)C2(C)CN(C)C2)c1` [Example 305, 3-{5-[(R)-(1,3-Dimethyl-azetidin-3-yl)-hydroxy-(4-isopropyl-phenyl)-methyl]-pyridin-3-yl}-but-3-en-1-ol] has an IC50 of 121 nM.

Work on `CC(C)c1ccc([C@](O)(c2cncc(C(=O)NC3CCCC3)c2)C2(C)CN(C)C2)cc1` [Example 306, N-Cyclopentyl-5-[(R)-(1,3-dimethyl-azetidin-3-yl)-hydroxy-(4-isopropyl-phenyl)-methyl]-nicotinamide] yielded an IC50 of 101 nM.

With `CC(C)c1ccc([C@](O)(c2cncc(C(=O)N3CCCC3)c2)C2(C)CN(C)C2)cc1` [Example 307] the IC50 was 567 nM.

`CC(C)c1ccc([C@](O)(c2cncc(C(=O)NC3CCOCC3)c2)C2(C)CN(C)C2)cc1` [Example 308] was tested, and the IC50 was 515 nM.

In the case of `COCCCc1ccc(C(O)(c2cncc(N3CCCC3)c2)C2(C)CN(C)C2)cc1` (centres unmarked) [Example 309, (1,3-Dimethyl-azetidin-3-yl)-[4-(3-methoxy-propyl)-phenyl]-(5-pyrrolidin-1-yl-pyridin-3-yl)-methanol], the IC50 is reported as 58.6 nM.

With `CN1CC(C)([C@](O)(c2ccc(C3CC3)cc2)c2cncc(N3CCCC3)c2)C1` [Example 310] the IC50 was 48.6 nM.

`Cc1ccc([C@](O)(c2cncc(N3CCCC3)c2)C2(C)CN(C)C2)cc1` [Example 311] was tested, and the IC50 was 140 nM.

With `CC(C)c1ccc([C@](O)(c2cncc(C3CCN(C(=O)OC(C)(C)C)CC3)c2)C2(C)CN(C)C2)cc1` [Example 312, 5-[(R)-(1,3-Dimethyl-azetidin-3-yl)-hydroxy-(4-isopropyl-phenyl)-methyl]-3′,4′,5′,6′-tetrahydro-2′H-[3,4′]bipyridinyl-1′-carboxylic acid tert-butyl ester] the IC50 was 23.9 nM.

`CC(C)c1ccc([C@](O)(c2cncc(C3CCN(C(=O)OC(C)(C)C)C3)c2)C2(C)CN(C)C2)cc1` (some centres unmarked) [Example 313] was tested, and the IC50 was 158 nM.

With `CC(C)c1ccc([C@](O)(c2cncc(C3CCOCC3)c2)C2(C)CN(C)C2)cc1` [Example 314] the IC50 was 111 nM.

`CC(C)c1ccc([C@](O)(c2cncc(C3CCN(c4ccccn4)CC3)c2)C2(C)CN(C)C2)cc1` [Example 315, (R)-(1,3-Dimethyl-azetidin-3-yl)-(4-isopropyl-phenyl)-(3′,4′,5′,6′-tetrahydro-2′H-[2,1′; 4′,3″]terpyridin-5″-yl)-methanol] gave an IC50 of 23.6 nM.

Work on `CC(C)c1ccc([C@](O)(c2cncc(C3CCCO3)c2)C2(C)CN(C)C2)cc1` (stereo partly drawn) [Example 318, (R)-(1,3-Dimethyl-azetidin-3-yl)-(4-isopropyl-phenyl)-[5-(tetrahydro-furan-2-yl)-pyridin-3-yl]-methanol] yielded an IC50 of 154 nM.

Work on `CC1CCC(c2cncc([C@@](O)(c3ccc(C(C)C)cc3)C3(C)CN(C)C3)c2)O1` (some centres unmarked) [Example 319] yielded an IC50 of 94.4 nM.

`CC(C)c1ccc([C@](O)(c2cncc(C3CCC(C)(C)O3)c2)C2(C)CN(C)C2)cc1` (some centres unmarked) [Example 320] was tested, and the IC50 was 86 nM.

Compound `CC(C)c1ccc([C@](O)(c2cncc(CC(F)(F)CO)c2)C2(C)CN(C)C2)cc1` [Example 321, 3-{5-[(R)-(1,3-Dimethyl-azetidin-3-yl)-hydroxy-(4-isopropyl-phenyl)-methyl]-pyridin-3-yl}-2,2-difluoro-propan-1-ol] has an IC50 of 273 nM.

With `Cc1cnc(-c2cncc([C@@](O)(c3ccc(C(C)C)cc3)C3(C)CN(C)C3)c2)o1` [Example 322, (R)-(1,3-Dimethyl-azetidin-3-yl)-(4-isopropyl-phenyl)-[5-(5-methyl-oxazol-2-yl)-pyridin-3-yl]-methanol] the IC50 was 49.9 nM.

In the case of `CC(C)c1ccc([C@](O)(c2cncc(-c3ncc(C4CCOCC4)o3)c2)C2(C)CN(C)C2)cc1` [Example 323, (R)-(1,3-Dimethyl-azetidin-3-yl)-(4-isopropyl-phenyl)-{5-[5-(tetrahydro-pyran-4-yl)-oxazol-2-yl]-pyridin-3-yl}-methanol], the IC50 is reported as 67.8 nM.

Work on `CC(C)c1ccc([C@](O)(c2cncc(COc3ccc(F)cc3)c2)C2(C)CN(C)C2)cc1` [Example 324, (R)-(1,3-Dimethyl-azetidin-3-yl)-[5-(4-fluoro-phenoxymethyl)-pyridin-3-yl]-(4-isopropyl-phenyl)-methanol] yielded an IC50 of 15 nM.

`CC(C)NC(=O)OCc1cncc([C@@](O)(c2ccc(C(C)C)cc2)C2(C)CN(C)C2)c1` [Example 325, Isopropyl-carbamic acid 5-[(R)-(1,3-dimethyl-azetidin-3-yl)-hydroxy-(4-isopropyl-phenyl)-methyl]-pyridin-3-ylmethyl ester] gave an IC50 of 595 nM.

`CC(C)c1ccc([C@](O)(c2cncc(CCOCc3ccccc3)c2)C2(C)CN(C)C2)cc1` [Example 326, (R)-[5-(2-Benzyloxy-ethyl)-pyridin-3-yl]-(1,3-dimethyl-azetidin-3-yl)-(4-isopropyl-phenyl)-methanol] gave an IC50 of 83.3 nM.
